Laboratory results reported in ChEMBL document CHEMBL2401673, “Design, synthesis, functional and structural characterization of an inhibitor of N-acetylneuraminate-9-phosphate phosphatase: observation of extensive dynamics in an enzyme/inhibitor complex” (Bioorg Med Chem Lett, 2013).

Experiments:
[1] = Dissociation constant, pKa of the compound by potentiometric titration method; type: physicochemical
[2] = target: T1, N-acylneuraminate-9-phosphatase (Homo sapiens, UniProt Q8TBE9); assay: Reversible inhibition of recombinant HDHD4 (unknown origin) using Neu5Ac-9-P as substrate assessed as release of phosphate after 30 mins by maiachite green assay
T1 sequence (Q8TBE9 whole entry): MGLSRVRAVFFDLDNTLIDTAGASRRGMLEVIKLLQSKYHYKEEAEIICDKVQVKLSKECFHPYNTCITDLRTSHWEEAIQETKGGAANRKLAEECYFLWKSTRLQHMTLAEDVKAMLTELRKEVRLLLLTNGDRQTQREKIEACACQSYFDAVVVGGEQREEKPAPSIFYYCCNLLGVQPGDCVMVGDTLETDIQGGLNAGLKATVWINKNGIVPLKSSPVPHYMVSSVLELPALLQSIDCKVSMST

[3] = target: T1, N-acylneuraminate-9-phosphatase; assay: Inhibition of recombinant HDHD4 (unknown origin) using Neu5Ac-9-P as substrate assessed as release of phosphate after 30 mins by maiachite green assay

| Structure (SMILES) | pKa [1] | IC50 [2] [µM] | IC50 [3] [µM] |
| --- | --- | --- | --- |
| CC(=O)N[C@H]1[C@H]([C@H](O)[C@H](O)CO)O[C@](O)(C(=O)O)C[C@@H]1O | 3.2 |  |  |
| CC(=O)N[C@H]1[C@H]([C@H](O)[C@H](O)CCP(=O)(O)O)O[C@](O)(C(=O)O)C[C@@H]1O | 3.5 | 11 |  |
| CC(=O)N[C@H]1[C@H]([C@H](O)[C@H](O)COP(=O)(O)O)O[C@](O)(C(=O)O)C[C@@H]1O | 3.6 |  |  |
| CC(=O)N[C@H]1[C@H]([C@H](O)[C@H](O)CCC(=O)O)O[C@](O)(C(=O)O)C[C@@H]1O |  |  | > 100 |

Next, values leading:

| pKa [1] | IC50 [2] [µM] | IC50 [3] [µM] | Structure (SMILES) |
| --- | --- | --- | --- |
|  |  | 49.8 | CO[C@@]1(C(=O)O)C[C@H](O)[C@@H](NC(C)=O)[C@H]([C@H](O)[C@H](O)CCP(=O)(O)O)O1 |
|  |  | 93.7 | COC(=O)[C@]1(OC)C[C@H](O)[C@@H](NC(C)=O)[C@H]([C@H](O)[C@H](O)CCP(=O)(O)O)O1 |
